This is an account of results in ChEMBL document CHEMBL6177996 (J Med Chem, 2025).

A short description of the data set: physchem. The conditions noted are these: water.

≈ marks a conversion by molar mass, not a printed value.

A word on the solubility: it is the concentration that dissolves in the medium under given conditions. Low values mean little dissolved substance, high ones much dissolved substance. The compound `C=CC(=O)NCc1cc(C(=O)NCc2c(SC)cc(C)[nH]c2=O)c(C)c(N(CC)C2CCOCC2)c1` displayed a solubility of 0.166 mg/mL (≈ 324 µM).
